Patent US6469028B1, “Synthesis and use of retinoid compounds having negative hormone and/or anatgonist activities” (Allergan, Inc., priority 1995, dated 2002)

Tests used:
[1] = tested on: cervical carcinoma patients; assay: Example 23: clinical study in cervical carcinoma patients with metastatic disease; assay type: in vivo, human; details: maximum tolerated dose every other day, three months to one year
Protocol: Patients are divided into two groups. The first group is a control group while members of the second group are treated with AGN 193109. AGN 193109 is combined with a pharmaceutically acceptable excipient to produce a composition suitable for systemic administration, all according to techniques that will be familiar to one having ordinary skill in the art. The control group is administered a placebo formulation and the experimental group is administered with the formulation containing the AGN 193109 negative hormone. Dosing of patients is at the maximum tolerated dose and is performed every other day for a period of from three months to one year. The outcome of the study is quantified via measurement of disease-free survival over time.

RARβ [2] = target: T1, RARβ (Homo sapiens, UniProt P10826); assay: Example 7: inhibition of RAR transactivation by ATRA, CV-1 cells; assay type: cell-based; parameters: expressed in transfected cells; host or cells: green monkey CV-1 cells; details: equal doses of AGN 193109 and ATRA (10 nM ATRA)
T1 sequence (P10826 1-448 isoform P10826-2): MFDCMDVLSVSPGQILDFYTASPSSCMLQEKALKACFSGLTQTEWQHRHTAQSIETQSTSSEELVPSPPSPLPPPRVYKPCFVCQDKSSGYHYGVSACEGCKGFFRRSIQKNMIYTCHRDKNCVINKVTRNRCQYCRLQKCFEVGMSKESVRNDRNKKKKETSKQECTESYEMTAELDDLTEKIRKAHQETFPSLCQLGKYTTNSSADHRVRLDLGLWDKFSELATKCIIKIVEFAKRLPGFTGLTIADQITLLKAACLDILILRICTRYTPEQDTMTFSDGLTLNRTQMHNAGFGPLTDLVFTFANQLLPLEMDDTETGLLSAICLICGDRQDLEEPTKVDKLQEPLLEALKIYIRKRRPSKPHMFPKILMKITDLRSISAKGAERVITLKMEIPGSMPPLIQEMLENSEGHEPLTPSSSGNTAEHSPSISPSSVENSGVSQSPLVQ
Protocol: Eukaryotic expression vectors pRShRAR-α (Giguere et al. Nature 330:624 (1987)), pRShRAR-β (Benbrook et al. Nature 333:669 (1988)) and pRShRAR-γ (Ishikawa et al. Mol. Endocrinol. 4:837 (1990)) were cotransfected with the Δ-MTV-Luc reporter plasmid described by Hollenberg et al. (Cell 55:899.(1988)). […] Calcium phosphate transfections were carried out exactly as described in Example 6. […] Cell lysates and luciferase activity measurements were also performed as in Example 6.

[3] = tested on: TPA-induced Str-AP1-CAT expression; assay: Example 13: anti-AP-1 activity, Str-AP1-CAT and pRS-hRARα in HeLa cells; assay type: cell-based; details: AGN 193109 alone, 10^−10 to 10^−8 M
RARβ [4] = target: T1, RARβ; assay: [3H]-ATRA displacement assay, baculovirus expressed receptor; assay type: binding; parameters: made in house; host or cells: baculovirus expression system; details: Table 11
RARγ = target: T2, RARγ (Homo sapiens, UniProt P13631); assay: Example 7: inhibition of RAR transactivation by ATRA, CV-1 cells; assay type: cell-based; details: equal doses of AGN 193109 and ATRA (10 nM ATRA)
T2 sequence (P13631 1-454): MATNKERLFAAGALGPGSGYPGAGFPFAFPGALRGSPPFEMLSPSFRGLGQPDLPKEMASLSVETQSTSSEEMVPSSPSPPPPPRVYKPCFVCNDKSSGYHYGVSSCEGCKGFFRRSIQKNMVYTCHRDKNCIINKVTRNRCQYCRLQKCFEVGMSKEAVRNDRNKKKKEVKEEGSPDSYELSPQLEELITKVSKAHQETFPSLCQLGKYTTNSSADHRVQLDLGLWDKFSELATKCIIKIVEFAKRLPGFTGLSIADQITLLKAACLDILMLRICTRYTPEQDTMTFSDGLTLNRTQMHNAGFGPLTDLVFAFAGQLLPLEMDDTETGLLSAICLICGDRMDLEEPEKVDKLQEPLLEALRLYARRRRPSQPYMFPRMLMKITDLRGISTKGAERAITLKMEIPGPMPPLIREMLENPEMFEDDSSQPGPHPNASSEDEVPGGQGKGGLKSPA

[5] = tested on: TPA-induced AP-1 activity; assay: Example 15: anti-AP-1 activity, Str-AP1-CAT in HeLa cells; assay type: cell-based
Protocol: HeLa cells were transfected with 1 μg of Str-AP1-CAT using LIPOFECTAMINE according to the method described by Nagpal et al. in J. Biol. Chem. 270:923 (1995). Transfected cells were treated with AGN 193109 alone (10^−9 to 10^−7 M), 1,25-dihydroxyvitamin D3 alone (10^−12 to 10^−7 M) or 1,25-dihydroxyvitamin D3 (10^−12 to 10^−7 M) in the presence of 10^−8 M AGN 193109.

ER-RAR-α = assay: Example 10: repression of basal gene activity, ERE-tk-Luc, CV-1 cells; assay type: cell-based; details: 10^−9 to 10^−6 M, 18 hours, single agent
From the text: (§1) More specifically, these procedures employed the ER-RAR chimeric receptor and ERE-tk-Luc reporter system. The ERE-tk-Luc plasmid includes the region −397 to −87 of the estrogen responsive 5′-flanking region of the Xenopus vitellogenin A2 gene, described by Klein-Hitpass, et al. in Cell 46:1053-1061 (1986), ligated upstream of the HSV thymidine kinase promoter and luciferase reporter gene of plasmid tk-Luc. The ER-RAR chimeric receptors consisted of the estrogen receptor DNA binding domain fused to the “D-E-F” domain of the RARs. Those having ordinary skill in the art appreciate this “D-E-F” domain functions to bind retinoid, to provide a retinoid inducible transactivation function and to provide a contact site for heterodimerization with RXR. Thus, luciferase expression in this reporter system was dependent on activation of the transfected chimeric receptor construct.
(§2) CV-1 cells were co-transfected with the ERE-tk-Luc reporter plasmid and either ER-RAR-α, ER-RAR-β or ER-RAR-γ expression plasmids. The ERE-tk-Luc plasmid contained the estrogen-responsive promoter element of the Xenopus laevis vitellogenin A2 gene and was substantially identical to the reporter plasmid described by Klein-Hitpass et al. in Cell 46:1053 (1986), except that the CAT reporter gene was substituted by a polynucleotide sequence encoding luciferase. The ER-RAR-α, ER-RARβ and ER-RAR-γ chimeric receptor-encoding polynucleotides employed in the co-transfection have been described by Graupner et al. in Biochem. Biophys. Res. Comm. 179:1554 (1991). […] Calcium phosphate transfections were carried out exactly as described in Example 6 using 0.5 μg/well of reporter plasmid and either 0.05 μg, 0.10 μg or 0.2 μg/well of receptor plasmid. […] Cell lysates and luciferase activity measurements were performed as described in Example 6.

ER-RAR-γ = assay: as above; assay type: cell-based; details: 10^−9 to 10^−6 M, 18 hours, single agent
From the text: as §1, §2

ER-RAR-β = assay: as above; assay type: cell-based; details: 10^−9 to 10^−6 M, 18 hours, single agent
From the text: as §1, §2

Cc1ccc(C2=CCC(C)(C)c3ccc(C#Cc4ccc(C(=O)O)cc4)cc32)cc1 [Compound 60, 4-[(5,6-dihydro-5,5-dimethyl-8-(4-methylphenyl)-2-naphthalenyl)ethynyl]benzoic acid]
disease-free survival [1]: significant increase in disease-free survival
inhibition of luciferase activity relative to ATRA alone (RARβ [2]): greater than 50%
inhibition of AP-1 mediated reporter activity [3]: did not substantially inhibit
Kd (RARβ [4]): 2 nM
inhibition of luciferase activity relative to ATRA alone (RARγ): greater than 50%
anti-AP-1 activity ([5]; AGN 193109 alone, 10^−9 to 10^−7 M): no detectable anti-AP-1 activity
anti-AP-1 activity of 1,25-dihydroxyvitamin D3 ([5]; in the presence of 10^−8 M AGN 193109): anti-AP-1 activity was detectable at 10^−10 and 10^−9 M 1,25-dihydroxyvitamin D3
luciferase reporter activity (ER-RAR-α): substantially unaffected
luciferase reporter activity (ER-RAR-γ): dose responsive decrease in luciferase reporter activity
luciferase reporter activity (ER-RAR-β): dose responsive decrease in luciferase reporter activity
